Melting point data for 13 compounds are collected here from paper PMC6150375, “Synthesis, Biological Evaluation and Molecular Docking Study of 2-Substituted-4,6-Diarylpyrimidines as α-Glucosidase Inhibitors” (Molecules : A Journal of Synthetic Chemistry and Natural …, 2017).

`Clc1ccccc1CSc1nc(-c2ccc(Br)cc2)cc(-c2ccc(Br)cc2)n1` [Compound 6a, 4,6-Bis(4-bromophenyl)-2-((2-chlorobenzyl)thio)pyrimidine] yielded a melting point of 147 to 148 °C.
Next, `Clc1ccc(CSc2nc(-c3ccc(Br)cc3)cc(-c3ccc(Br)cc3)n2)cc1` [Compound 6b, 4,6-Bis(4-bromophenyl)-2-((4-chlorobenzyl)thio)pyrimidine]: 176 to 178 °C; `Fc1ccccc1CSc1nc(-c2ccc(Br)cc2)cc(-c2ccc(Br)cc2)n1` [Compound 6d, 4,6-Bis(4-bromophenyl)-2-((2-fluorobenzyl)thio)pyrimidine]: 149 to 150 °C; `Cc1ccc(-c2cc(-c3cccc(Br)c3)nc(SCc3ccccc3Cl)n2)cc1` [Compound 6f, 4-(3-Bromophenyl)-2-((2-chlorobenzyl)thio)-6-(p-tolyl)pyrimidine]: 107 to 110 °C.
The compound `Cc1ccc(-c2cc(-c3cccc(Br)c3)nc(SCc3ccccc3F)n2)cc1` [Compound 6i, 4-(3-Bromophenyl)-2-((2-fluorobenzyl)thio)-6-(p-tolyl)pyrimidine] displayed a melting point of 100 to 104 °C.
Then `Cc1ccc(-c2cc(-c3ccc(Br)cc3)nc(SCc3ccccc3Br)n2)cc1` [Compound 6k, 2-((2-Bromobenzyl)thio)-4-(4-bromophenyl)-6-(p-tolyl)pyrimidine], with 123 to 126 °C; and `Cc1ccc(-c2cc(-c3ccc(Br)cc3)nc(SCc3ccc(F)cc3)n2)cc1` [Compound 6l, 4-(4-Bromophenyl)-2-((4-fluorobenzyl)thio)-6-(p-tolyl)pyrimidine], with 115 to 124 °C.
The compound `Cc1ccc(-c2cc(-c3ccc(Br)cc3)nc(SCc3ccccc3F)n2)cc1` [Compound 6m, 4-(4-Bromophenyl)-2-((2-fluorobenzyl)thio)-6-(p-tolyl)pyrimidine] yielded a melting point of 124 to 127 °C.
Consider `Cc1ccc(-c2cc(-c3ccc(Br)cc3)nc(SCc3cccc(F)c3)n2)cc1` [Compound 6n, 4-(4-Bromophenyl)-2-((3-fluorobenzyl)thio)-6-(p-tolyl)pyrimidine], for which the melting point fell in the range of 106 to 109 °C.
Next, `Cc1ccc(-c2cc(-c3ccc(Br)cc3)nc(SCc3ccccc3)n2)cc1` [Compound 6o, 2-(Benzylthio)-4-(4-bromophenyl)-6-(p-tolyl)pyrimidine]: 129 to 130 °C; `Cc1ccc(-c2cc(-c3cccc(Br)c3)nc(SCc3ccc(Br)cc3)n2)cc1` [Compound 6r, 2-((4-Bromobenzyl)thio)-4-(3-bromophenyl)-6-(p-tolyl)pyrimidine]: 135 to 138 °C; `Clc1ccccc1CSc1nc(-c2ccc(Br)cc2)cc(-c2cccc(Br)c2)n1` [Compound 6s, 4-(3-Bromophenyl)-6-(4-bromophenyl)-2-((2-chlorobenzyl)thio)pyrimidine]: 129 to 132 °C.
Next, `Fc1cccc(CSc2nc(-c3ccc(Br)cc3)cc(-c3cccc(Br)c3)n2)c1` [Compound 6t, 4-(3-Bromophenyl)-6-(4-bromophenyl)-2-((3-fluorobenzyl)thio)pyrimidine]: 94 to 96 °C.
